Reference: patent US12102672B2, “Immunogenic sequences from a phage tail length tape measure protein, bacteria expressing the same and their use in treating a cancer” (INSTITUT GUSTAVE ROUSSY, priority 2017, dated 2024)

Columns and labels:
[1] = system: IFNg producing CD8^+ T (Tc1) cells; details: naïve mice; cited from earlier work
MCA205 sarcoma = test: Prophylactic vaccination with pulsed DCs followed by MCA205 challenge; format: in vivo, C57BL/6 mice; details: poly I:C-activated BM-DC pulsed with peptides (20 μg/ml) or heat-inactivated bacteria, s.c. twice 10 days apart
Method: FIG. 16. Protocol of immunization with DC pulsed with TMP peptides. After DCs differentiation (with GM-CSF and IL-4 during 6 days), we incubated them with poly I:C (10 μg/ml) overnight before the addition of peptide (1 hour) or heat-inactivated bacteria (6 hours). These DCs are injected subcutaneous on right flank at day 0 and 10. […] We constitute 4 groups, one group without DCs, one group with DCs pulsed with 20 μg/ml of irrelevant peptides (gr1) or TMP peptides or 13144 heat-inactivated bacteria. Mean tumor sizes over time (A), each mouse tumor kinetics for each group (B), and the detailed comparison in between groups at the two last time points before sacrifice for MCA205 are shown (C), each dot representing one mouse. MC38 related data are not shown.
FIG. 17. […] Tumor growth of MCA205 in mice vaccinated with DCs pulsed with gr1 peptides, TMP peptides and E. hirae 13144. (A) Mean±SEM of tumor sizes at different kinetics. (B) Tumor growth kinetics for each individual group of 5-10 mice. (C) Tumor sizes and statistical differences at time of sacrifice.
A-B. Prophylactic vaccinations. […] C-D. Therapeutic settings.
After DCs differentiation, these DCs were activated with poly I:C (10 μg/ml, Invivogen) overnight before infection with heat-inactivated (2 h at 65° C.) bacterial strains (MOI 10) or pulsed with peptides (20 μg/ml, peptide 2.0). […]

E. gallinarum = test: Phage transmission from E. hirae to E. gallinarum in small intestine enteroids; parameters: species or system Enterococcus gallinarum; details: 1:1 ratio E. hirae / E. gallinarum on enteroids
Excerpt: . […] Also refer to FIG. 39.
Temperate bacteriophages are bacterial viruses that transfer virulence, antimicrobial resistance genes, and immunogenic sequences to new bacterial hosts (Weinbauer, 2004). The TMP protein, which contains a variable number of tandem repeats with highly conserved tryptophan and phenylalanine residues at fixed positions is encoded by the genome of Siphoviridae phages (Belcaid et al., 2011; Piuri and Hatfull, 2006). To analyze the capacity of E. hirae 13144 to contagiously disseminate the phage TMP sequence, we performed culturomic analyses of the ileal content from C57BL/6 mice subjected to oral gavage with E. hirae 13144 and systemic CTX therapy (FIG. 30C). […] Of note, none of the 90 colonies (mostly of E. gallinarum) isolated from naive mice harbored the TMP sequence (FIG. 39). Moreover, CTX plays a role in eliminating the E. gallinarum, allowing the niching and/or colonization of E. hirae in the small intestine, as shown in vitro in enteroid systems or in PCR of the ileal content (FIG. 30G and not shown). Importantly, incubation of small intestine enteroids with a balanced 1:1 ratio of E. hirae or E. gallinarum harbouring or not the phage respectively, lead to the transmission of the infectious/lytic phage to E. gallinarum by E. hirae in 9% of colonies at 6 hrs and 26% at 20 hrs (FIG. 30G).

Substance	immunogenic and oncomicrobiotic properties of the isolate [1]	protection against MCA205 tumor challenge (MCA205 sarcoma)	colonies of E. gallinarum with transmitted phage (E. gallinarum; 6 hrs)	colonies of E. gallinarum with transmitted phage (E. gallinarum; 20 hrs)
Enterococcus hirae 708 [Peptide 708, reference compound]	induced IFNg producing CD8^+ T (Tc1) cells	–	–	–
Enterococcus hirae strain 13144 [Peptide 13144]	–	reduced tumor growth	9%	26%
